Assay results taken from patent publication US20240100001A1, “DENATONIUM SALT FOR USE IN PREVENTING, PREVENTING PROGRESSION AND TREATING FATTY LIVER DISEASES” (AARDVARK THERAPEUTICS INC., priority 2021, published 2024).

Assays:
[1] = system: Male C57BL/6N mice fed choline-deficient, L-amino acid-defined, high-fat diet (CDAHFD); settings: cited from earlier work
[2] = system: patients with NASH and IGT or T2DM; settings: women and men; cited from earlier work
[3] = system: Male C57BL/6 mice fed a CDAHFD diet for 12 weeks; settings: cited from earlier work
[4] = system: Male C57BL/6J mice fed with the AMLN diet for 50 weeks; settings: 30 mg/kg, PO, QD for 8 weeks; cited from earlier work
[5] = system: AMLN-diet induced NASH mice; format: in vivo
Experimental: This example provides the results obtained from a second in vivo mouse model of fatty liver disease treatment to investigate the therapeutic effect of DA on the treatment of NASH versus positive control semaglutide (a GLP-1 agonist marketed drug for lowering HbA1c). The differences in this study, from the preventive model in Example 1, were that a higher dose of DA (75 mg/kg) was used versus 30 mg/kg, dosing was twice daily (BID versus QD in the Example 1 study), a positive control semaglutide was used, a different mouse strain (B6 mice) was used, and the animals were already adults (23 weeks old in Example 2 versus 4 weeks old in Example 1) when the study began because the animals were already fed an AMLN diet for 17 weeks prior to the study being initiated. The study dose began at 75 mg/kg BID.
The study included 3 groups of 10 mice each, (A) vehicle control with distilled water by gavage BID, (B) DA by gavage BID, and (C) semaglutide […] sc QD. Body weights and changes were measured 3× per week. Serum metabolic markers (blood glucose, blood insulin, HbA1c, HDL, LDL triglycerides and bile acids) were measured at beginning of dosing (baseline) and end of study. At the end of the study, histopathology of liver samples and serum levels of inflammatory biomarkers (IL-6, TNFα, CK-18 and TGF-β) were evaluated. Histopathology was performed blindly with a scoring scale according to NAFLD Activity Score and Fibrosis Score according to Table 4.

[6] = system: AMLN diet-induced NASH mice; assay: Example 1: one-year DA dosing of AMLN diet-induced NASH mice (prevention study); format: in vivo
Experimental: This example provides the results of a 52 week study of lower dose DA (30 mg/kg per day QD by gavage) in mice where NASH conditions were induced by diet. The data for an animal-induced NASH of such a long duration (48-52 weeks) can be interpreted to support methods for preventing fatty liver diseases, including NASH, and methods of slowing progression of fatty liver diseases, including NASH. Male C57BL/6 mice (4 weeks old at study start) were maintained on a high-fat “Western diet” (AMLN diet) (DIO-NASH) (D09100301, Research Diet, USA) (40% fat (18% trans-fat), 40% carbohydrates (20% fructose) and 2% cholesterol, 40 kcal % fat, 20 kcal % fructose, and 2% cholesterol) following arrival, inducing non-alcoholic steatohepatitis (NASH). Following acclimation, Groups 1 and 2 (n=22 each) were dosed by intragastric oral gavage (PO) with (respectively) vehicle (distilled water) or denatonium acetate (DA) at 30 mg/kg. Doses were administered once daily (QD) for a full year (through Day 366) at dose volumes of 1 mL/kg. Body weights and clinical observations were monitored throughout the study. Blood was collected from fasted animals at baseline (Day −1) and regularly during the study (Weeks 4, 12, 24, and 48), processed to serum or plasma, and evaluated for metabolic parameters [glucose, insulin, hemoglobin A1c (HbA1c), and glucagon-like peptides 1 and 2 (GLP-1 and -2)], selected serum chemistry parameters [Ala aminotransferase (ALT), Asp aminotransferase (AST), albumin (ALB), and total bile acids (BA)], and multiple cytokines (32 total). After 52 weeks of QD dosing, fasted animals were bled and euthanized, and livers were collected and weighed. Terminal serum samples were assessed for low- and high-density cholesterol (LDL and HDL, respectively) and triglycerides (TGA); liver was assessed for total cholesterol (TC), TGA, and free fatty acids (FFA).
Male C57BL/6 mice (n=44) were purchased from Taconic Biosciences, Inc. (Rensselaer, NY), as 4-week-old animals. Following arrival, animals were weighed using an electronic balance (Ohaus SCOUT® PRO, Parsippany, NJ), given a clinical examination to ensure that the mice were in good condition, and group-housed (up to 4 per cage). The animals were maintained in HEPA-filtered static cages using SaniChip bedding 7090A (Harlan Teklad, Hayward, CA). Animal room controls were set to maintain temperature and relative humidity at 22° C.±4° C. and 50% 20%, respectively. Housing rooms were on a 12:12 light/dark cycle. Animals were acclimated on site for at least 3 days prior to entry onto the study. Following arrival and throughout the study, mice were provided with ad libitum access to water (via water bottles) and (except as noted for fasting) to a high-fat “Western diet” (AMLN diet, No. D09100301; Research Diets, New Brunswick, NJ) containing 40 kcal % fat, 20 kcal % fructose, and 2% cholesterol.
DA was formulated at 30 mg/mL in DW. Solid DA was weighed and added to the appropriate volume of DW; the solution was mixed well and inspected visually to ensure that there was no precipitate and to verify that the test article was completely solubilized. The DA dosing solution was prepared freshly each week and stored refrigerated at 4° C. between use in daily dose administrations. On Day −1 (i.e., one day before the start of dosing); and on Weeks 4, 12, 24, and 48 (i.e., after one, 3, 6, and 12 months of dosing), blood and fecal samples were collected from fasted animals. • Fecal samples (4 pellets per cage of 3-4 mice) were collected directly collected from the floor of each cage, divided into two aliquots, and stored at −80° C. for future microbiota and microbiome analysis. Results of those analyses are not included in this report. • Blood (100 μL/animal) was collected from each animal via the submandibular route. All blood samples were assessed for blood glucose levels and then processed to both serum and plasma. […]

[7] = 23.1 mg/kg BID DA; cited from earlier work
[8] = DA 75 then 50 mg/kg BID, 12 weeks
[9] = 30 mg/kg PO QD, one year (48 weeks in Table 2), blinded histopathologic review
[10] = 30 mg/kg PO QD, only at Week 24
[11] = after one year of QD dosing, 30 mg/kg
[12] = after one year of daily dosing, 30 mg/kg

## CCCCOCCOc1ccc(-c2ccc3c(c2)/C=C(/C(=O)Nc2ccc([S@@+]([O-])Cc4cncn4CCC)cc2)CCCN3CC(C)C)cc1 [Cenicriviroc]
[1]; 30 mg/kg/day for 4 or 14 weeks
  intrahepatic accumulation of inflammatory macrophages: Inhibited
[1]; only with 30 mg/kg/day for 14 weeks, IP
  fibrosis on histopathology: improved

## CCc1ccc(CCOc2ccc(CC3SC(=O)NC3=O)cc2)nc1 (stereo not shown) [pioglitazone]
[2]
  risk of weight gain, edema, congestive heart failure, and osteoporotic fractures: significantly increased risk

## CC[C@H]1[C@@H](O)[C@@H]2[C@H](CC[C@]3(C)[C@@H]([C@H](C)CCNC(=O)NS(=O)(=O)c4ccc(C(C)(C)C)cc4)CC[C@@H]23)[C@@]2(C)CC[C@@H](O)C[C@@H]12 [EDP-305]
[3]; High dose (30 mg/kg)
  fibrogenic gene expression: decreased
[3]; High-dose (30 mg/kg) daily PO from the beginning of week 6
  fibrosis progression on histopathology: mg/kg) halted

## CSc1ccc(C(=O)/C=C/c2cc(C)c(OC(C)(C)C(=O)O)c(C)c2)cc1 [Elafibranor]
[4]
  fibrosis severity: reduced
  histopathological score of hepatic steatosis: reduced
  histopathological score of inflammation: reduced

## CC(=O)[O-].CC[N+](CC)(CC(=O)Nc1c(C)cccc1C)Cc1ccccc1 [DA, denatonium acetate]
[5]; [8]
  body weight: remarkable effect
  body weight change: remarkable effect
  liver weight vs vehicle: significantly decreased
  liver/body weight ratio vs vehicle: significantly decreased
[5]; blinded histopathologic review, DA 75 then 50 mg/kg BID, 12 weeks
  NAFLD Activity Score: significantly improved
[5]; end of the study
  ALT levels vs vehicle control: significantly decreased
  AST levels vs vehicle control: significantly decreased
  CK-18 levels vs vehicle control: significantly decreased
  high density lipoproteins (HDL): significantly decreased
  low density lipoproteins (LDL): significantly decreased
  triglycerides (TG): significantly decreased
[6]; 30 mg/kg PO QD
  levels of the other (n=24) assessed cytokines vs vehicle: Significant treatment-related differences were not seen
[6]; 30 mg/kg PO QD, n=22, Weeks 12 and 49, unclear if test article related
  animals found dead during the study: two
[6]; [9]
  fibrosis on histopathology: improved/abrogated
  steatosis on histopathology: significantly improved
[6]; 30 mg/kg PO QD, one year, 1.52 vs. 0.58, p<0.0001
  total fibrosis score: 0.58
[6]; 30 mg/kg PO QD, Day 4
  relative body weights vs vehicle: lower
[6]; 30 mg/kg PO QD, Week 4 only
  IP-10 blood level vs vehicle: Statistically significant attenuation
  MIP-1B blood level vs vehicle: Statistically significant attenuation
[6]; 30 mg/kg PO QD, Week 12 only
  IL-13 blood level vs vehicle: Statistically significant attenuation
[6]; 30 mg/kg PO QD, Week 24 only
  MIP-1a blood level vs vehicle: Statistically significant attenuation
  Serum BA levels vs vehicle: significantly attenuated
  fasting blood glucose levels vs vehicle: significantly lower
[6]; 30 mg/kg PO QD, Week 48
  GLP-2 levels vs vehicle: did not differ significantly
[6]; 30 mg/kg PO QD, Week 48 only
  IL-6 blood level vs vehicle: Statistically significant attenuation
  IL-9 blood level vs vehicle: Statistically significant attenuation
  KC blood level vs vehicle: Statistically significant attenuation
[6]; 30 mg/kg PO QD, Weeks 4 and 12, not subsequently
  insulin levels vs vehicle: significantly elevated
[6]; 30 mg/kg PO QD, Weeks 4 and 48 only
  MIG blood level vs vehicle: Statistically significant attenuation
[6]; 30 mg/kg PO QD, Weeks 12 and 48, not Week 24
  HbA1c levels vs vehicle: significantly attenuated
[6]; 30 mg/kg PO QD, Weeks 24 and 48, not earlier
  Serum ALT activity levels vs vehicle: significantly attenuated
[6]; 30 mg/kg PO QD, any assessed time point
  Serum ALB levels vs vehicle: did not differ significantly
[6]; 30 mg/kg PO QD, during the first 5 months (both groups)
  body weight increase from baseline: ~150%
[6]; 30 mg/kg PO QD, during the study except Day 4 relative
  body weights (absolute or relative) vs vehicle: did not differ in a statistically significant manner
[6]; 30 mg/kg PO QD, during the year-long study (both groups)
  body weights mean increase from baseline: approximately 200%
[6]; [10]
  GLP-1 levels vs vehicle: significantly attenuated
  Serum AST activity levels vs vehicle: significantly attenuated
[6]; 30 mg/kg, PO, QD for 48 weeks
  Lowered serum levels of ALT: ALT (−43%),
  Lowered serum levels of AST: AST (−9.5%),
  Lowered serum levels of HbA1c: HbA1c (−6.7%),
  Lowered serum levels of bile acid: acid (−16.2%)
  Lowered serum levels of fasting glucose: glucose (−9%),
  decreased liver weight of animals: (by 10%)
  serum levels of GLP-1 (Table 2 summary): Increased
  serum levels of GLP-2 (Table 2 summary): Increased
  serum levels of inflammatory markers: Lowered serum
[6]; [11]
  absolute liver weight at necropsy vs vehicle: not absolute liver weight was attenuated
  relative (body weight-normalized) liver weight at necropsy vs vehicle: attenuated
[6]; [12]
  Liver TGA levels vs vehicle: significantly attenuated
  Serum TGA levels vs vehicle: significantly attenuated
  liver FFA levels vs vehicle: not those of TC or FFA, were significantly attenuated
  liver TC levels vs vehicle: not those of TC or FFA, were significantly attenuated
  serum HDL levels vs vehicle: not those of HDL or LDL, were significantly attenuated
  serum LDL levels vs vehicle: not those of HDL or LDL, were significantly attenuated
[6]; mouse, in vivo, po, 30 mg/kg
  adverse effects on survival, body weight, or clinical signs: did not appear to have adverse effects
[7]
  weight gain: significant reduction
